We go through one molecule from BindingDB's records for doi:10.1016/S0960-894X(97)10080-4 (1997).

This assay is described as follows: Tested for functional activity against neuronal nicotinic acetylcholine receptor(nAChR) expressed in K177 cells using isotopic rubidium efflux assay.

Some results are limits rather than exact numbers.

`c1cnc2cc([C@@H]3CCCN3)oc2c1` [(S)-2-Pyrrolidin-2-yl-furo[3,2-b]pyridine] came in with an EC50 greater than 1000 µM.
